According to patent US12098148B2, “Therapeutic compounds” (C4X Discovery Limited, priority 2018, dated 2024):

What was measured:
[1] = test system: NQO1 mRNA in BEAS-2B cells; experiment: Beas2B NQO1 mRNA cell based assay; set-up: species or system human; settings: Homo sapiens, BEAS-2B, 24 h, 24 h compound treatment, increase in NQO1 mRNA vs vehicle (0.1% DMSO), read-out: EC50
How it was run: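 Relative NQO1 transcript level derived by ΔΔCT with human β-actin as internal control, using direct-lysate one-step RT-qPCR. Cells were BEAS-2B, plated overnight then treated with compound for 24 h.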

[2] = target: human KEAP1 (N-term, residues 321-609) (Homo sapiens, UniProt Q14145); experiment: biochemical;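 further: fluorescence polarization competition assay of Kelch domain binding to NRF2, 12-point 1:3 dilution series from 10 µM, read after 1 h at room temperature, floor 10 nM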
human KEAP1 (N-term, residues 321-609), sequence (Q14145 321-609): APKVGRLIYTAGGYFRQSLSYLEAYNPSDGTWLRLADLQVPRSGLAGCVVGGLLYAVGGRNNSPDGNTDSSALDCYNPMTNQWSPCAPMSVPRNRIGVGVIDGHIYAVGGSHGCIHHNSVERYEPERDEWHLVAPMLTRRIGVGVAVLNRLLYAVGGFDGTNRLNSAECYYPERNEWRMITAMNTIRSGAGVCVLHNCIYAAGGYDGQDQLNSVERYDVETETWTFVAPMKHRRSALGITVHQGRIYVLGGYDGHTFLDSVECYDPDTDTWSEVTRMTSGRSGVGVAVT

Row | Structure (SMILES) | EC50 [1] [nM] | IC50 [2] [nM]
1 | C[C@H]1CCN(C[C@@H]2c3c(OCc4nnn(C)c4C(F)F)ccc(Cl)c3CCN2C(=O)[C@@H]2CCC[C@]2(C)C(=O)O)C1=O [Example 114, (1S,2R)-2-((1S)-5-Chloro-8-((5-(difluoromethyl)-1-methyl-1H-1,2,3-triazol-4-yl)methoxy)-1-(((S)-3-methyl-2-oxopyrrolidin-1-yl)methyl)-1,2,3,4-tetrahydroisoquinoline-2-carbonyl)-1-methylcyclopentane-1-carboxylic acid] | 16 | 7.4
2 | C[C@H]1CCN(C[C@@H]2c3c(OCc4nnn(C)c4C(F)F)ccc(Cl)c3CCN2C(=O)[C@@H]2CCCC[C@]2(C)C(=O)O)C1=O [Example 115, (1S,2R)-2-((1S)-5-Chloro-8-((5-(difluoromethyl)-1-methyl-1H-1,2,3-triazol-4-yl)methoxy)-1-(((S)-3-methyl-2-oxopyrrolidin-1-yl)methyl)-1,2,3,4-tetrahydroisoquinoline-2-carbonyl)-1-methylcyclohexane-1-carboxylic acid] | 4.2 | 9.7
3 | C[C@H]1CC(=O)N(C[C@@H]2c3c(OCc4nnn(C)c4C(F)F)ccc(Cl)c3CCN2C(=O)[C@@H]2CCC[C@]2(C)C(=O)O)C1 [Example 116, (1S,2R)-2-((S)-5-chloro-8-((5-(difluoromethyl)-1-methyl-1H-1,2,3-triazol-4-yl)methoxy)-1-(((S)-4-methyl-2-oxopyrrolidin-1-yl)methyl)-1,2,3,4-tetrahydroisoquinoline-2-carbonyl)-1-methylcyclopentane-1-carboxylic acid] | 1900 | 73
4 | CC[C@]1(C(=O)O)CCCC[C@H]1C(=O)N1CCc2c(Cl)ccc(OCc3nnn(C)c3C(F)F)c2[C@H]1CN1CCCC1=O [Example 117, (1S,2R)-2-((S)-5-chloro-8-((5-(difluoromethyl)-1-methyl-1H-1,2,3-triazol-4-yl)methoxy)-1-((2-oxopyrrolidin-1-yl)methyl)-1,2,3,4-tetrahydroisoquinoline-2-carbonyl)-1-ethylcyclohexane-1-carboxylic acid] | 37 | 8.2
5 | CC[C@]1(C(=O)O)CCC[C@H]1C(=O)N1CCc2c(Cl)ccc(OCc3nnn(C)c3C(F)F)c2[C@H]1CN1CCCC1=O [Example 118, (1S,2R)-2-((S)-5-chloro-8-((5-(difluoromethyl)-1-methyl-1H-1,2,3-triazol-4-yl)methoxy)-1-((2-oxopyrrolidin-1-yl)methyl)-1,2,3,4-tetrahydroisoquinoline-2-carbonyl)-1-ethylcyclopentane-1-carboxylic acid] | 59 | 8.4
6 | CCn1nnc(COc2ccc(Cl)c3c2[C@@H](CN2CCCC2=O)N(C(=O)[C@@H]2CCC[C@]2(C)C(=O)O)CC3)c1C(F)F [Example 119, (1S,2R)-2-((S)-5-chloro-8-((5-(difluoromethyl)-1-ethyl-1H-1,2,3-triazol-4-yl)methoxy)-1-((2-oxopyrrolidin-1-yl)methyl)-1,2,3,4-tetrahydroisoquinoline-2-carbonyl)-1-methylcyclopentane-1-carboxylic acid] | 18 | 8.1
7 | CCn1nnc(COc2ccc(Cl)c3c2[C@@H](CN2CCCC2=O)N(C(=O)[C@@H]2CCCC[C@]2(C)C(=O)O)CC3)c1C(F)F [Example 120, (1S,2R)-2-((S)-5-chloro-8-((5-(difluoromethyl)-1-ethyl-1H-1,2,3-triazol-4-yl)methoxy)-1-((2-oxopyrrolidin-1-yl)methyl)-1,2,3,4-tetrahydroisoquinoline-2-carbonyl)-1-methylcyclohexane-1-carboxylic acid] | 1.2 | 6.2
8 | CC(C)n1nnc(COc2ccc(Cl)c3c2[C@@H](CN2CCCC2=O)N(C(=O)[C@@H]2CCCC[C@]2(C)C(=O)O)CC3)c1C(F)F [Example 121, (1S,2R)-2-((S)-5-chloro-8-((5-(difluoromethyl)-1-isopropyl-1H-1,2,3-triazol-4-yl)methoxy)-1-((2-oxopyrrolidin-1-yl)methyl)-1,2,3,4-tetrahydroisoquinoline-2-carbonyl)-1-methylcyclohexane-1-carboxylic acid] | 11 | 6.3
9 | CC(C)n1nnc(COc2ccc(Cl)c3c2[C@@H](CN2CCCC2=O)N(C(=O)[C@@H]2CCC[C@]2(C)C(=O)O)CC3)c1C(F)F [Example 122, (1S,2R)-2-((S)-5-chloro-8-((5-(difluoromethyl)-1-isopropyl-1H-1,2,3-triazol-4-yl)methoxy)-1-((2-oxopyrrolidin-1-yl)methyl)-1,2,3,4-tetrahydroisoquinoline-2-carbonyl)-1-methylcyclopentane-1-carboxylic acid] | 86 | 9.7
10 | Cn1nnc(COc2ccc(Cl)c3c2[C@@H](CN2CC4(CC4)CC2=O)N(C(=O)[C@@H]2CCCC[C@]2(C)C(=O)O)CC3)c1C(F)F [Example 123, (1S,2R)-2-((S)-5-chloro-8-((5-(difluoromethyl)-1-methyl-1H-1,2,3-triazol-4-yl)methoxy)-1-((6-oxo-5-azaspiro[2.4]heptan-5-yl)methyl)-1,2,3,4-tetrahydroisoquinoline-2-carbonyl)-1-methylcyclohexane-1-carboxylic acid] | 0.26 | 5.8
11 | Cc1onc(COc2ccc(Cl)c3c2[C@@H](CN2CCCC2=O)N(C(=O)[C@@H]2CCCC[C@]2(C)C(=O)O)CC3)c1C [Example 124, (1S,2R)-2-((S)-5-chloro-8-((4,5-dimethylisoxazol-3-yl)methoxy)-1-((2-oxopyrrolidin-1-yl)methyl)-1,2,3,4-tetrahydroisoquinoline-2-carbonyl)-1-methylcyclohexane-1-carboxylic acid] | 6.8 | 8.4
12 | Cc1onc(COc2ccc(Cl)c3c2[C@@H](CN2CCCC2=O)N(C(=O)[C@@H]2CCCC[C@]2(C)C(=O)O)CC3)c1Cl [Example 125, (1S,2R)-2-((S)-5-chloro-8-((4-chloro-5-methylisoxazol-3-yl)methoxy)-1-((2-oxopyrrolidin-1-yl)methyl)-1,2,3,4-tetrahydroisoquinoline-2-carbonyl)-1-methylcyclohexane-1-carboxylic acid] | 30 | 9.2
13 | Cc1cnoc1COc1ccc(Cl)c2c1[C@@H](CN1CCCC1=O)N(C(=O)[C@@H]1CCCC[C@]1(C)C(=O)O)CC2 [Example 126, (1S,2R)-2-((S)-5-chloro-8-((4-methylisoxazol-5-yl)methoxy)-1-((2-oxopyrrolidin-1-yl)methyl)-1,2,3,4-tetrahydroisoquinoline-2-carbonyl)-1-methylcyclohexane-1-carboxylic acid] | 32 | 5.6
14 | COCc1c(COc2ccc(Cl)c3c2[C@@H](CN2CCCC2=O)N(C(=O)[C@@H]2CCCC[C@]2(C)C(=O)O)CC3)nnn1C [Example 127, (1S,2R)-2-((S)-5-chloro-8-((5-(methoxymethyl)-1-methyl-1H-1,2,3-triazol-4-yl)methoxy)-1-((2-oxopyrrolidin-1-yl)methyl)-1,2,3,4-tetrahydroisoquinoline-2-carbonyl)-1-methylcyclohexane-1-carboxylic acid] | 2.6 | 7
15 | COCCc1c(COc2ccc(Cl)c3c2[C@@H](CN2CCCC2=O)N(C(=O)[C@@H]2CCCC[C@]2(C)C(=O)O)CC3)nnn1C [Example 128, (1S,2R)-2-((i)-5-chloro-8-((5-(2-methoxyethyl)-1-methyl-1H-1,2,3-triazol-4-yl)methoxy)-1-((2-oxopyrrolidin-1-yl)methyl)-1,2,3,4-tetrahydroisoquinoline-2-carbonyl)-1-methylcyclohexane-1-carboxylic acid] | 1.9 | 8.7
16 | Cn1nnc(COc2ccc(Cl)c3c2[C@@H](CN2CCCC2=O)N(C(=O)[C@@H]2CCCC[C@]2(C)C(=O)O)CC3)c1C1CC1 [Example 129, (1S,2R)-2-((S)-5-chloro-8-((5-cyclopropyl-1-methyl-1H-1,2,3-triazol-4-yl)methoxy)-1-((2-oxopyrrolidin-1-yl)methyl)-1,2,3,4-tetrahydroisoquinoline-2-carbonyl)-1-methylcyclohexane-1-carboxylic acid] | 0.95 | 5.5
17 | C[C@H]1CCN(C[C@@H]2c3c(OCc4nnn(C)c4C(F)(F)F)ccc(Cl)c3CCN2C(=O)[C@@H]2CCCC[C@]2(C)C(=O)O)C1=O [Example 130, (1S,2R)-2-((S)-5-chloro-1-(((S)-3-methyl-2-oxopyrrolidin-1-yl)methyl)-8-((1-methyl-5-(trifluoromethyl)-1H-1,2,3-triazol-4-yl)methoxy)-1,2,3,4-tetrahydroisoquinoline-2-carbonyl)-1-methylcyclohexane-1-carboxylic acid] | 21 | 6.7
18 | C[C@@H]1CCN(C[C@@H]2c3c(OCc4nnn(C)c4C(F)(F)F)ccc(Cl)c3CCN2C(=O)[C@@H]2CCCC[C@]2(C)C(=O)O)C1=O [Example 131, (1S,2R)-2-((S)-5-chloro-1-(((R)-3-methyl-2-oxopyrrolidin-1-yl)methyl)-8-((1-methyl-5-(trifluoromethyl)-1H-1,2,3-triazol-4-yl)methoxy)-1,2,3,4-tetrahydroisoquinoline-2-carbonyl)-1-methylcyclohexane-1-carboxylic acid] | 200 | 12
19 | C[C@@H]1CC(=O)N(C[C@@H]2c3c(OCc4nnn(C)c4C(F)(F)F)ccc(Cl)c3CCN2C(=O)[C@@H]2CCCC[C@]2(C)C(=O)O)C1 [Example 132, (1S,2R)-2-((S)-5-chloro-1-(((R)-4-methyl-2-oxopyrrolidin-1-yl)methyl)-8-((1-methyl-5-(trifluoromethyl)-1H-1,2,3-triazol-4-yl)methoxy)-1,2,3,4-tetrahydroisoquinoline-2-carbonyl)-1-methylcyclohexane-1-carboxylic acid] | 5.7 | 5.1
